Source: US9212204B2, “Treatment of rett syndrome using glycyl-L-2-methylprolyl-L-glutamic acid” (priority 2011, dated 2015)
Non-standard residues stand in square brackets, D forms with d. Residues, ends and D or L forms follow the SMILES beside them. αMeP = C[C@@]1(C(=O)O)CCCN1

Columns and labels:
RTT iPSC-derived neurons = experiment: In vitro human model of Rett Syndrome, iPSC-derived neurons; assay type: cell-based; design: glutamatergic synapse numbers: dose or concentration left out as unconfirmed
From the text: To test the effects of G-2-MePE on neuronal morphology, we used an in vitro model of RTT described in Marchetto et al., A model for neural development and treatment of Rett syndrome using human induced pluripotent stem cells, Cell 143:527-539 (2010) (including supplemental information). The model uses induced pluripotent stem cells (iPSCs) generated from fibroblasts of human RTT patients carrying different MeCP2 mutations.
RTT fibroblasts (carrying 4 distinct MeCP2 mutations) and control fibroblasts are generated from explants of dermal biopsies. The shRNA against target MeCP2 gene is cloned into the LentiLox3.7 lentivirus vector (as described in Marchetto et al.). The fibroblasts are infected with retroviral reprogramming vectors (Sox2, Oct4, c-Myc and Klf4), Two days after infection, fibroblasts are plated on mitotically inactivated mouse embryonic fibroblasts with hESC medium. After 2 weeks, iPSC colonies that emerge from the background of fibroblasts are manually picked and transferred to feeder-free conditions on matrigel-coated dishes (BD) using embryonic stem cell culture media mTeSR™ (Stem Cell Technologies) and passaged manually. Gene expression profiles of the generated clones are measured using human genome Affymetrix Gene Chip™ arrays to confirm that reprogramming is successful.
To obtain neural progenitor cells (NPCs), embryoid bodies (EBs) are formed by mechanical dissociation of cell clusters and plating onto low-adherence dishes in hESC medium without FGF2 for 5-7 days. After that, EBs are plated onto poly-ornithine/laminin-coated dishes in DMEM/F12 plus N2 medium (serum-free supplement for growth and expression of post-mitotic cells). […]
Cells are fixed in 4% paraformaldehyde and permeabilized with 0.5% Triton-X100 in PBS. […] Fluorescent signals are detected using a Zeiss inverted microscope and images are processed with Photoshop CS3. The following primary antibodies are used: TRA-1-60, TRA-1-81 (1:100), Nanog and Lin28 (1:500), human Nestin (1:100), Tuj-1 (1:500), Map2 (1:100); meCP2 (1:1000; VGLUT1 (1:200), Psd95 (1:500), GFP (1:200), Sox1 (1:250), Mushasil (1:200) and me3H3K27 (1:500). Cell soma size is measured using suitable software (e.g. ImageJ) after identification of neurons using the Syn::EGFP™. The morphologies of neuronal dendrites and spines are studied from an individual projection of z-stacks optical sections and scanned at 0.5 um increments that correlate with the resolution valued at z-plane. Each optical section is the result of 3 scans at 500 lps followed by Kalman filtering. For synapse quantification, images are taken by a z-step of 1 um using Biorad radiance 2100™ confocal microscope. Synapse quantification is done blinded to genotype. Only VGLUT1 puncta along Map2-positive processes are counted. […]

[1] = tested on: heterozygous Shank3-deficient mice; experiment: Shank3-deficient mouse model, behavioral analyses; assay type: in vivo; details: 15 or 60 mg/kg oral b.i.d. for 14 days
From the text: Heterozygous mice generated by crossing wild-type mice with heterozygotes are used in this example to best model the haploinsufficiency of Shank3, responsible for 22q13 deletion syndrome.
1 to 3 month old wild type and heterozygous Shank3-deficient mice are divided into 4 treatment groups: placebo treated wild-type, placebo treated Shank3-deficient group and two Shank3-deficient G-2-MePE treated groups. The animals are given placebo (water) or G-2-MePE formulated in water administered orally, b.i.d for 14 days. G-2-MePE is administered at two doses: 15 or 60 mg/kg.
Behavioral assessments are made at several, time points, and include analysis of social interactions and ultrasonic social communication, in line with the methodology described by Bozdagi et al. Briefly, male-female social interactions in each treatment group are evaluated. […] Videos from the male subjects are subsequently scored by an investigator uninformed of the subject's genotype and treatment group on measures of nose-to-nose sniffing, nose-to-anogenital sniffing and sniffing of other body regions, using Noldus Observer software (Noldus Information Technology, Leesburg, Va., USA). Ultrasonic vocalizations are identified manually by two highly trained investigators blinded to genotype/treatment group information, and summary statistics are calculated using the Avisoft package. […]

central nervous system = details: after oral administration; cited from earlier work

## C[C@@]1(C(=O)N[C@@H](CCC(=O)O)C(=O)O)CCCN1C(=O)CN [Example G-2-MePE, Glycyl-L-2-methylprolyl-L-glutamic acid] (H-Gly-[αMeP]-Glu-OH)
RTT iPSC-derived neurons; 1 week treatment
  frequency and amplitude of spontaneous post-synaptic currents: normalizes
  frequency of calcium transients: normalizes
RTT iPSC-derived neurons; all concentrations, 1 week
  VGLUT1 puncta number: increase
RTT iPSC-derived neurons; for 1 week, vs non-treated RTT controls
  glutamatergic synapse numbers: significant increase
[1]; vs placebo treated Shank3-deficient group
  cumulative duration of total social sniffing: significant increase
[1]; vs placebo treated mutant group
  number of ultrasonic vocalizations: increased number
Central nervous system
  activity in the central nervous system: active
